Measurements published in paper PMC6414531, “Contrasting in vitro and in vivo methanol oxidation activities of lanthanide-dependent alcohol dehydrogenases XoxF1 and ExaF from Methylobacterium extorquens AM1” (Scientific Reports, 2019).

How the values were obtained:
XoxF1 MDH (XoxF1-La) [1] = target: T1, XoxF1 MDH (XoxF1-La) (Methylorubrum extorquens, UniProt C5B120); assay: UV-visible spectroscopy of purified enzyme; type: binding; conditions: co-purified prosthetic group
T1 construct: C-terminal hexahistidine tag with rTEV site, tag cleaved; 1:1 La3+ per protomer, PQQ-containing
T1 sequence (C5B120 22-601): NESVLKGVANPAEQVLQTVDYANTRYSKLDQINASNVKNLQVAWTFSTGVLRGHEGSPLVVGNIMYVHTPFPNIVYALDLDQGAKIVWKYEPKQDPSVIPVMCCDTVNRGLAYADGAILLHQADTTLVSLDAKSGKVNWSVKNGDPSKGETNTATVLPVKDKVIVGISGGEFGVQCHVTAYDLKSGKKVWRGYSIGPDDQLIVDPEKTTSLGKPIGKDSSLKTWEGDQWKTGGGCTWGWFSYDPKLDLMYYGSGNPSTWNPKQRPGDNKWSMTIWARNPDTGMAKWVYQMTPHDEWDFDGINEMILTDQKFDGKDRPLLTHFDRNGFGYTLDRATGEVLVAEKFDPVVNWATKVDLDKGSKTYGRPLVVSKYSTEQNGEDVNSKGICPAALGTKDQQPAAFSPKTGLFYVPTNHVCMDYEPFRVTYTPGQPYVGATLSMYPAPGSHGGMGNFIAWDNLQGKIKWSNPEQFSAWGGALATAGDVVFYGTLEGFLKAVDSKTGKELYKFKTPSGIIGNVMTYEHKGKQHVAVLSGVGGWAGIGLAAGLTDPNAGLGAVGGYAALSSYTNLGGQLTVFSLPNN

XoxF1 MDH (XoxF1-La) [2] = target: T1, XoxF1 MDH (XoxF1-La); assay: PMS-mediated DCPIP reduction at […] nm, Michaelis-Menten fit; type: biochemical; conditions: La3+-loaded enzyme (1:1), PQQ; PMS/DCPIP as electron acceptors
[3] = target: T2, ExaF (ExaF-La, Ln-dependent ethanol dehydrogenase) (Methylorubrum extorquens, UniProt C5AXV8); assay: PMS-mediated DCPIP reduction in cell-free extract; type: biochemical; conditions: MDH-3 mutant strain (lacks MxaF, XoxF1, XoxF2), grown with methanol and La3+
T2 construct: native enzyme in cell-free extract of MDH-3 mutant grown with methanol and La3+
T2 sequence (C5AXV8 27-587): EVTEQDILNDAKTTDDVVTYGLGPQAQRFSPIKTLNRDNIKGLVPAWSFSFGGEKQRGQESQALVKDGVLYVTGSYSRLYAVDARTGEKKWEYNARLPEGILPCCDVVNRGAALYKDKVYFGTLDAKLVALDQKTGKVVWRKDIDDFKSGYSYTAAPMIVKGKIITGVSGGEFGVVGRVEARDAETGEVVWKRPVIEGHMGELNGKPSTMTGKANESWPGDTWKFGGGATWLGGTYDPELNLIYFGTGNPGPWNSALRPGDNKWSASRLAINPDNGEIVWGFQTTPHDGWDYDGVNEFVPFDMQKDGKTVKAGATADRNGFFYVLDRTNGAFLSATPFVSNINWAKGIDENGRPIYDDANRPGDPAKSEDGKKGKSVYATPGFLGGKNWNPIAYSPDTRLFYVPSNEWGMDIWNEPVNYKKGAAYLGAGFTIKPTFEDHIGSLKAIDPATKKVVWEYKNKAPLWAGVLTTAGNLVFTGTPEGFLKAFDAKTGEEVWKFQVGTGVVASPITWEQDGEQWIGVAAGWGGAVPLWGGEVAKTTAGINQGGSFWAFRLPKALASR

purified protein = substrate: CCO; assay: purified protein; conditions: La3+-loaded enzyme (1:1), PQQ; PMS/DCPIP as electron acceptors

O=C(O)c1cc(C(=O)O)c2c(n1)C(=O)C(=O)c1cc(C(=O)O)[nH]c1-2 [PQQ]
molar ratio (XoxF1 MDH (XoxF1-La) [1]): PQQ was detected as a prosthetic group via UV-visible spectroscopy

CO [methanol]
Km (XoxF1 MDH (XoxF1-La) [2]): 0.044 ± 0.005 mM

C=O [formaldehyde]
specific activity [3]: confirming that ExaF can oxidize formaldehyde in vivo
Km (XoxF1 MDH (XoxF1-La) [2]): 0.096 ± 0.006 mM

B1: XoxF1 MDH (XoxF1-La) (Methylorubrum extorquens AM1) (protein)
chain: T1 sequence (C5B120 22-601)
Km (purified protein): 67 ± 3 µM
Vmax (purified protein): 6.21 µmol/min/mg
kcat/Km (purified protein): 194000 M⁻¹ s⁻¹
